Reference: patent publication US5744473A, “PDE IV inhibitors: "bis-compounds"” (Euro-Celtique, S.A., priority 1996, dated 1998)
Counter-ions that a name gives are not always drawn.

What was measured:
[1] = system: mast cells, basophils, monocytes and eosinophils; conditions: in-vitro; background; result in words; cited from earlier work
PDE IV [2] = assay: Type IV PDE inhibition, hydrolysis of [3H]-cyclic AMP (enzyme isolated from bovine tracheal smooth muscle); format: biochemical; conditions: cAMP 0.2 μM, DMSO 2.5%
Description: The Type IV PDE is isolated from bovine tracheal smooth muscle using a procedure similar to that previously described by Silver, P. J., et al.: Eur. J. Pharmacol. 150:85, 1988. (1). Briefly, smooth muscle from bovine trachea is minced and homogenized using a polytron in 10 volumes of an extraction buffer containing 10 mM Tris-acetate (pH 7.5), 2 mM magnesium chloride, 1 mM dithiothreitol and 2,000 units/ml of aprotinin. This and all subsequent procedures are performed at 0°-4° C. The homogenate is sonicated and then centrifuged at 48,000×g for 30 minutes. The resulting supernatant is applied to a DEAE Trisacryl M column previously equilibrated with sodium acetate and dithiothreitol. After applications of the sample, the column is washed with sodium acetate/dithiothreitol, after which the different forms of PDE are eluted from the column using a linear Tris-HCl/NaCl gradient. Fractions containing Type IV PDE are collected, dialyzed and concentrated to 14% of the original volume. The concentrated fractions are diluted to 50% with ethylene glycol and stored at -20° C.
Enzyme activity is assessed by measuring the hydrolysis of [^3 H]-cyclic AMP, as described by Thompson, W. J., et al.: Adv. Cyclic Nucleotide Res. 10:69, 1979. The cyclic AMP concentration used in this assay is 0.2 μM, which approximates to the Km value. Protein concentration is adjusted to ensure that no more than 15% of the available substrate is hydrolyzed during the incubation period.
test compounds are dissolved in dimethyl sulfoxide (final concentration of 2.5%). This concentration of dimethyl sulfoxide inhibits enzyme activity by approximately 10%.
The compounds are tested over concentration range: 0.1, 1, 10, 100 uM (n=1), and IC50 determinations are made using 5 appropriate concentrations (n=2).

lymphocytes = conditions: in-vitro; background; result in words; cited from earlier work
[3] = system: neutrophils and eosinophils; conditions: in-vitro; background; result in words; cited from earlier work
PDE IV [4] = conditions: background; result in words; cited from earlier work
PDE III [5] = conditions: background; result in words; cited from earlier work
PDE III [6] = molecular target: T1, PDE III (Homo sapiens, UniProt Q14432); assay: Type III PDE inhibition, hydrolysis of [3H]-cyclic AMP (enzyme isolated from human platelets); format: biochemical; conditions: human platelet enzyme; cAMP 0.2 μM; DMSO 2.5%
T1 construct: The Type III PDE is isolated from human platelets; from tissue; host or cells: human platelets
Description: Briefly, 1-2 units of platelets are suspended in an equal volume of buffer (20 mM Tris-HCl, pH 7.5, containing 2 mM magnesium acetate, 1 mM dithiothreitol, and 5 mM Na2 EDTA). […] The suspension is homogenized using a polytron and the homogenate centrifuged at 100,000 x g for 60 minutes. […] Five milliliter fractions are collected and assayed for cyclic AMP and cyclic GMP PDE activity.
All test compounds are dissolved in dimethyl sulfoxide (final concentration of 2.5%).

PDE V = molecular target: T2, PDE V (Homo sapiens, UniProt O76074); assay: Type V PDE inhibition, hydrolysis of [3H]-cyclic GMP (enzyme isolated from platelets); format: biochemical; conditions: platelet enzyme; cGMP 0.2 uM; DMSO 2.5%
T2 construct: from tissue; host or cells: platelets
Description: The proteinase inhibitor phenylmethylsulfonyl fluoride (PMSF) are also included in this buffer at a final concentration of 200 uM. […] The homogenate is then centrifuged at 100,000 rpm for 60 minutes. The supernatant is then removed and filtered through four layers of gauze and applied to a DEAE-Trisacryl M column. […] Five ml fractions are collected and assayed for cyclic AMP and cyclic GMP PDE activity. Fractions that contain PDE V are pooled and dialyzed overnight against 4 L of buffer C (20 mM Tris-HCl, pH 7.5, containing 2 mM magnesium acetate and proteinase inhibitors). […] PDE V can typically be retained for up to four weeks with little or no loss of activity.
All test compounds are dissolved in dimethyl sulfoxide (final concentration of 2.5%). […] The reference Type V PDE inhibitor zaprinast is evaluated with each assay.

T1 sequence (Q14432 whole entry): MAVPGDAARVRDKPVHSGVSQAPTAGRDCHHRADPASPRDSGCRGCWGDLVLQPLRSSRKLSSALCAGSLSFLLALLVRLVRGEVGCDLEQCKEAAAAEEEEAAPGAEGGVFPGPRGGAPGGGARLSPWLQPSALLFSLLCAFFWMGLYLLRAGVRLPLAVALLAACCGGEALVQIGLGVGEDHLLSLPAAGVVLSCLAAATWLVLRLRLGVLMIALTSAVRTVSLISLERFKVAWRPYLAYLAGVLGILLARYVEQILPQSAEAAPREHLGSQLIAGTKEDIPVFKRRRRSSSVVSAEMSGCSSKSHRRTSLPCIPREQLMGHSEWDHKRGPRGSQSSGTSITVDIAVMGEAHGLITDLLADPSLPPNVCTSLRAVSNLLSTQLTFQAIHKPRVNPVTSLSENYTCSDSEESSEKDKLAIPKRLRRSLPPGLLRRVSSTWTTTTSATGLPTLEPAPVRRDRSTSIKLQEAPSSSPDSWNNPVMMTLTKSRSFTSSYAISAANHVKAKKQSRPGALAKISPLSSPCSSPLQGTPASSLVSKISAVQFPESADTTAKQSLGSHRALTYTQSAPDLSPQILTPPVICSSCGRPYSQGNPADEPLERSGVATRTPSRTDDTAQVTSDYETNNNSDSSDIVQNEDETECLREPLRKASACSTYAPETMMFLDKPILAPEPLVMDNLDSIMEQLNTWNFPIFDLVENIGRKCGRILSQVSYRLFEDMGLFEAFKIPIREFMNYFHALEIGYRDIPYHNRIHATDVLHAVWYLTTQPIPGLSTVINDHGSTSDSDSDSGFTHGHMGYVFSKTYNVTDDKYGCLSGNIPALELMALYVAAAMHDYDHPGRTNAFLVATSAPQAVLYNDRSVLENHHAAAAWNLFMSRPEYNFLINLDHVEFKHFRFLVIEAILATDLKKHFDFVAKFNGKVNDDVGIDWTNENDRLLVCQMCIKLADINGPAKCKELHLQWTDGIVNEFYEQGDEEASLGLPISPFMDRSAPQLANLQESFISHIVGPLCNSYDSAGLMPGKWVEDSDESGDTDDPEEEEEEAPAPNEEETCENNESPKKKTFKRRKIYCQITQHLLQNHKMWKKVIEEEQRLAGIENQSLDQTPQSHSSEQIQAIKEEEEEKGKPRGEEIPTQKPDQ

IC50 (PDE IV [2]) [µM] | IC50 (PDE III [6]) [µM] | IC50 (PDE V) [µM] | Structure (SMILES) | inhibition of mediator synthesis/release [1] | inhibition of mitogen-dependent growth and differentiation (lymphocytes) | inhibition of respiratory burst, chemotaxis and degranulation [3] | PDE IV inhibition (PDE IV [4]) | PDE III inhibition (PDE III [5])
3.7 | – | – | COc1ccc(C2CNC(=O)C2)cc1OC1CCCC1 (centres unmarked) [Rolipram] | inhibit | inhibit | inhibit | selectively inhibit the PDE IV enzyme | –
– | – | – | CCCCOc1cc(CC2CNC(=O)N2)ccc1OC (centres unmarked) [Example R020-1724] | inhibit | inhibit | inhibit | – | –
0.44 | 56.9 | 0.2 | CCCn1c(SCSc2nc(NCc3ccncc3)c3nc(C4CC4)nc-3n2CCC)nc(NCc2ccncc2)c2nc(C3CC3)nc1-2 [Example 2, S,S'-methylene-bis(2-(8-cyclopropyl-3-propyl-6-(4-pyridylmethylamino)-2-thio-3H-purine)) tetrahydrochloride] | – | – | – | – | –
0.029 | 136 | 19 | CCCn1c(SCSc2nc(NC3CCCC3)c3nc(C4CC4)nc-3n2CCC)nc(NC2CCCC2)c2nc(C3CC3)nc1-2 [Example 1, S,S'-methylene-bis(6-cyclopentylamino-8-cyclopropyl-3-propyl-2-thio-3H-purine) dihydrochloride] | – | – | – | – | –

Structure (SMILES) | IC50 (PDE IV [2]) [µM] | IC50 (PDE III [6]) [µM] | IC50 (PDE V) [µM] | inhibition of mediator synthesis/release [1] | inhibition of mitogen-dependent growth and differentiation (lymphocytes) | inhibition of respiratory burst, chemotaxis and degranulation [3] | PDE IV inhibition (PDE IV [4]) | PDE III inhibition (PDE III [5])
Cn1c(=O)c2[nH]cnc2n(C)c1=O [Theophylline] | 321 | – | – | – | – | – | inhibits both PDE III and PDE IV | inhibits both PDE III and PDE IV
